In patent US12421254B2, “KRAS modulators and uses thereof” (Quanta Therapeutics, Inc., priority 2023, dated 2025):

Legend:
[1] = system: phospho-ERK in SW620 (KRAS-G12V) cells; test: pERK In Cell Western (ICW) assay (Method B), SW620; assay type: cell-based
Summary of the method: (§1)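 Per well, infrared pERK immunofluorescence was divided by DRAQ5 nuclear signal following 3 h treatment with a 9-point, ½-log compound series; seeding was 5,000 (AGS) or 10,000 (GP2D, SW620) cells per well. Percent-of-blank data were fitted to a four-parameter model for IC50.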

[2] = target: GST-tagged KRAS-G12V (2-169) (Homo sapiens, UniProt P01116, G12V); test: Nucleotide exchange assay (NEA), SOS-mediated, HTRF, KRAS G12V; assay type: biochemical; conditions: Table 4; IC50 extracted at 90 min; 80 nM SOS
Chain of GST-tagged KRAS-G12V (2-169) (P01116 2-169 isoform P01116-2 G12V): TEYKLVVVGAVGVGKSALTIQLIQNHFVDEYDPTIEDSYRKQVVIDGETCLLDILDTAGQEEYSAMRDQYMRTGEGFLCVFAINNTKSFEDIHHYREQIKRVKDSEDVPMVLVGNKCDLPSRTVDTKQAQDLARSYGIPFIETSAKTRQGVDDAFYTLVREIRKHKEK
Summary of the method: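 Exchange onto fluorescent GTP-DY-647P1 (150 nM final) catalysed by 80 nM SOS1cat was followed by Tb-anti-GST HTRF at RT for up to 90 min, after 1 h compound pre-incubation with 0.25 nM GST-tagged KRAS-G12V (2-169), pH 7.3. DMSO = 0%, no-SOS blank = 100%; 4-parameter IC50 taken at 90 min.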

[3] = target: GST-tagged KRAS-G12D (2-169) (Homo sapiens, UniProt P01116, G12D); test: Nucleotide exchange assay (NEA), SOS-mediated, HTRF, KRAS G12D; assay type: biochemical; conditions: Table 4; IC50 extracted at 30 min; 20 nM SOScat; read-out: NEA G12D IC50
Chain of GST-tagged KRAS-G12D (2-169) (P01116 2-169 isoform P01116-2 G12D): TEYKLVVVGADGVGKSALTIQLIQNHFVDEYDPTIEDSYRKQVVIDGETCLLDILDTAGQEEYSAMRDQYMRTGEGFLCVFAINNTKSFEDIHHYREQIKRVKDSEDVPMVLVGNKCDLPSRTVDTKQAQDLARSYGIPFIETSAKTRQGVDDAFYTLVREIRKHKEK
Summary of the method: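 SOS1cat-driven loading of fluorescent GTP-DY-647P1 (150 nM) onto GST-KRAS-G12D (2-169, 0.25 nM) read by time-resolved FRET; SOScat 20 nM, compound preincubated with KRAS 1 h at RT. Signal blanked to no-SOS reactions, normalized to DMSO; IC50 fitted from the 30-min read.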

[4] = system: phospho-ERK in GP2D (KRAS-G12D) cells; test: pERK In Cell Western (ICW) assay (Method B), GP2D; assay type: cell-based
Summary of the method: as §1

[5] = Homo sapiens, SW-620, 3 h, Table 4

C[C@@]1(O)C[C@@H](O)CN(c2nc(OC[C@@]34CCCN3C[C@H](F)C4)nc(N3CC4(CCc5sc(N)c(C#N)c54)C3)n2)C1 [Compound 47, 2-amino-1′-[4-[(3R,5R)-3,5-dihydroxy-3-methyl-1-piperidyl]-6-[[(2R,8S)-2-fluoro-1,2,3,5,6,7-hexahydropyrrolizin-8-yl]methoxy]-1,3,5-triazin-2-yl]spiro[5,6-dihydrocyclopenta[b]thiophene-4,3′-azetidine]-3-carbonitrile]
IC50 [1, 5]: ≥ 20 µM | IC50 [2]: < 0.01 µM | IC50 [3]: < 0.01 µM | IC50 ([4]; GP2d, 3 h, Table 4): 0.1 to 1 µM

C[C@@]1(O)CCCN(c2nc(OC[C@@]34CCCN3C[C@H](F)C4)nc(N3CC4(C3)c3c(sc(N)c3C#N)CC4(F)F)n2)C1 [Compound 114, 2-amino-5,5-difluoro-1′-[4-[[(2R,8S)-2-fluoro-1,2,3,5,6,7-hexahydropyrrolizin-8-yl]methoxy]-6-[(3R)-3-hydroxy-3-methyl-1-piperidyl]-1,3,5-triazin-2-yl]spiro[6H-cyclopenta[b]thiophene-4,3′-azetidine]-3-carbonitrile]
IC50 [1, 5]: 0.1 to 1 µM | IC50 [2]: < 0.01 µM | IC50 [3]: < 0.01 µM | IC50 ([4]; GP2d, 3 h, Table 4): 0.01 to 0.1 µM

C[C@@]1(O)C[C@@H](F)CN(c2nc(OC[C@@]34CCCN3C[C@H](F)C4)nc(N3CC4(C3)SCc3sc(N)c(C#N)c34)n2)C1 [Compound 123, 2-amino-1′-[4-[[(2R,8S)-2-fluoro-1,2,3,5,6,7-hexahydropyrrolizin-8-yl]methoxy]-6-[(3R,5R)-5-fluoro-3-hydroxy-3-methyl-1-piperidyl]-1,3,5-triazin-2-yl]spiro[6H-thieno[3,4-b]thiophene-4,3′-azetidine]-3-carbonitrile]
IC50 [1, 5]: 0.1 to 1 µM | IC50 [2]: < 0.01 µM | IC50 [3]: < 0.01 µM | IC50 ([4]; GP2d, 3 h, Table 4): 0.01 to 0.1 µM

N#Cc1c(N)sc2c1C1(CCC2)CN(c2nc(OC[C@@]34CCCN3C[C@H](F)C4)nc(N3CCCC(C#N)CC3)n2)C1 (stereo partly drawn) [Compound 39, 2-amino-1′-[4-(4-cyanoazepan-1-yl)-6-[[(2R,8S)-2-fluoro-1,2,3,5,6,7-hexahydropyrrolizin-8-yl]methoxy]-1,3,5-triazin-2-yl]spiro[6,7-dihydro-5H-benzothiophene-4,3′-azetidine]-3-carbonitrile]
IC50 [1, 5]: 1 to 20 µM | IC50 [2]: 0.01 to 0.1 µM | IC50 [3]: 0.01 to 0.1 µM | IC50 ([4]; GP2d, 3 h, Table 4): 1 to 20 µM

N#Cc1c(N)sc2c1C1(CN(c3nc(OC[C@@]45CCCN4C[C@H](F)C5)nc(N(CC(N)=O)Cc4cccnc4N)n3)C1)SC2 [Compound 194, 2-[[4-(2-amino-3-cyano-spiro[6H-thieno[3,4-b]thiophene-4,3′-azetidine]-1′-yl)-6-[[(2R,8S)-2-fluoro-1,2,3,5,6,7-hexahydropyrrolizin-8-yl]methoxy]-1,3,5-triazin-2-yl]-[(2-amino-3-pyridyl)methyl]amino]acetamide]
IC50 [1, 5]: 1 to 20 µM | IC50 [2]: < 0.01 µM | IC50 [3]: < 0.01 µM | IC50 ([4]; GP2d, 3 h, Table 4): 1 to 20 µM

CC(c1cccnc1N)N(C)c1nc(OCC2(CN3CCOCC3)CC2)nc(N2CC3(C2)SCc2sc(N)c(C#N)c23)n1 (stereo not shown) [Compound 128, 2-amino-1′-[4-[1-(2-amino-3-pyridyl)ethyl-methyl-amino]-6-[[1-(morpholinomethyl)cyclopropyl]methoxy]-1,3,5-triazin-2-yl]spiro[6H-thieno[3,4-b]thiophene-4,3′-azetidine]-3-carbonitrile]
IC50 [1, 5]: 0.01 to 0.1 µM | IC50 [2]: < 0.01 µM | IC50 [3]: 0.01 to 0.1 µM | IC50 ([4]; GP2d, 3 h, Table 4): 0.1 to 1 µM

CC(=O)C(O)(O)C(=O)N1[C@@H]2CC[C@H]1CN(c1nc(OC[C@@]34CCCN3C[C@H](F)C4)nc(N3CC4(C3)SCc3sc(N)c(C#N)c34)n1)C2 [Compound 159, 2-amino-1′-[4-[(1R,5S)-8-(2,2-dihydroxy-3-oxo-butanoyl)-3,8-diazabicyclo[3.2.1]octan-3-yl]-6-[[(2R,8S)-2-fluoro-1,2,3,5,6,7-hexahydropyrrolizin-8-yl]methoxy]-1,3,5-triazin-2-yl]spiro[6H-thieno[3,4-b]thiophene-4,3′-azetidine]-3-carbonitrile]
IC50 [1, 5]: 1 to 20 µM | IC50 [2]: 0.1 to 1 µM | IC50 [3]: 0.01 to 0.1 µM | IC50 ([4]; GP2d, 3 h, Table 4): 0.1 to 1 µM

N#Cc1c(N)sc2c1C1(CC2)CN(c2nc(OC[C@@]34CCCN3C[C@H](F)C4)nc(N3CCCOC[C@H]3CO)n2)C1 [Compound 69, 2-amino-1′-[4-[[(2R,8S)-2-fluoro-1,2,3,5,6,7-hexahydropyrrolizin-8-yl]methoxy]-6-[(3R)-3-(hydroxymethyl)-1,4-oxazepan-4-yl]-1,3,5-triazin-2-yl]spiro[5,6-dihydrocyclopenta[b]thiophene-4,3′-azetidine]-3-carbonitrile]
IC50 [1, 5]: 1 to 20 µM | IC50 [2]: 0.01 to 0.1 µM | IC50 [3]: 0.01 to 0.1 µM | IC50 ([4]; GP2d, 3 h, Table 4): 1 to 20 µM

CC1(O)CCCCN(c2nc(OC[C@@]34CCCN3C[C@H](F)C4)nc(N3CC4(CCc5sc(N)c(C#N)c54)C3)n2)C1 (stereo partly drawn) [Compound 48, 2-amino-1′-[4-(3-hydroxy-3-methyl-azepan-1-yl)-6-[[(2R,8S)-2-fluoro-1,2,3,5,6,7-hexahydropyrrolizin-8-yl]methoxy]-1,3,5-triazin-2-yl]spiro[5,6-dihydrocyclopenta[b]thiophene-4,3′-azetidine]-3-carbonitrile]
IC50 [1, 5]: 0.1 to 1 µM | IC50 [2]: < 0.01 µM | IC50 [3]: 0.01 to 0.1 µM | IC50 ([4]; GP2d, 3 h, Table 4): 0.1 to 1 µM

CC(c1cccnc1N)N(CCC#N)c1nc(OC[C@@]23CCCN2C[C@H](F)C3)nc(N2CC3(CCc4sc(N)c(C#N)c43)C2)n1 (stereo partly drawn) [Compound 118, 2-amino-1′-[4-[1-(2-amino-3-pyridyl)ethyl-(2-cyanoethyl)amino]-6-[[(2R,8S)-2-fluoro-1,2,3,5,6,7-hexahydropyrrolizin-8-yl]methoxy]-1,3,5-triazin-2-yl]spiro[5,6-dihydrocyclopenta[b]thiophene-4,3′-azetidine]-3-carbonitrile]
IC50 [1, 5]: < 0.01 µM | IC50 [2]: < 0.01 µM | IC50 [3]: < 0.01 µM | IC50 ([4]; GP2d, 3 h, Table 4): < 0.01 µM

N#Cc1c(N)sc2c1C1(CC2)CN(c2nc(OC[C@@]34CCCN3C[C@H](F)C4)nc(N(CCO)Cc3cn[nH]c3)n2)C1 [Compound 137, 2-amino-1′-[4-[[(2R,8S)-2-fluoro-1,2,3,5,6,7-hexahydropyrrolizin-8-yl]methoxy]-6-[2-hydroxyethyl(1H-pyrazol-4-ylmethyl)amino]-1,3,5-triazin-2-yl]spiro[5,6-dihydrocyclopenta[b]thiophene-4,3′-azetidine]-3-carbonitrile]
IC50 [1, 5]: 1 to 20 µM | IC50 [2]: 0.01 to 0.1 µM | IC50 [3]: 0.1 to 1 µM | IC50 ([4]; GP2d, 3 h, Table 4): 1 to 20 µM

N#Cc1c(N)sc2c1C1(CC2)CN(c2nc(OC[C@@]34CCCN3C[C@H](F)C4)nc(N3CCOCC(C#N)C3)n2)C1 (single isomer, unassigned) [Compound 91B, (6*)-4-[4-(2-amino-3-cyano-spiro[5,6-dihydrocyclopenta[b]thiophene-4,3′-azetidine]-1′-yl)-6-[[(2R,8S)-2-fluoro-1,2,3,5,6,7-hexahydropyrrolizin-8-yl]methoxy]-1,3,5-triazin-2-yl]-1,4-oxazepane-6-carbonitrile]
IC50 ([1]; Table 4, 3 hours): 0.01 to 0.1 µM | IC50 [2]: < 0.01 µM | IC50 [3]: < 0.01 µM | IC50 ([4]; Table 4, 3 hours): 0.1 to 1 µM

CC1(C#N)CCCCN(c2nc(OC[C@@]34CCCN3C[C@H](F)C4)nc(N3CC4(CCc5sc(N)c(C#N)c54)C3)n2)C1 (stereo partly drawn) [Compound 111, 2-amino-1′-[4-(3-cyano-3-methyl-azepan-1-yl)-6-[[(2R,8S)-2-fluoro-1,2,3,5,6,7-hexahydropyrrolizin-8-yl]methoxy]-1,3,5-triazin-2-yl]spiro[5,6-dihydrocyclopenta[b]thiophene-4,3′-azetidine]-3-carbonitrile]
IC50 [1, 5]: 0.1 to 1 µM | IC50 [2]: < 0.01 µM | IC50 [3]: < 0.01 µM | IC50 ([4]; GP2d, 3 h, Table 4): 0.1 to 1 µM
